Measured values taken from patent US8778871B2 (Takeda Pharmaceutical Company Limited, priority 2004, dated 2014).
Non-standard residues stand in square brackets, D forms with d. Residues, ends and D or L forms follow the SMILES beside them. No end group written: not given here. *: point of attachment. Phe(4-F) = N[C@@H](Cc1ccc(F)cc1)C(=O)O; Arg(Me) = CNC(=N)NCCC[C@H](N)C(=O)O; Hydrocinnamoyl = O=C(CCc1ccccc1)*; Bz = O=C(c1ccccc1)*; GABA = NCCCC(=O)O; azaGly = NNC(=O)O

How the values were obtained:
hOT7T175 [1] = target: T1, hOT7T175 (Homo sapiens, UniProt Q969F8, L364H); experiment: Intracellular Ca ion level-increasing activity using FLIPR (180 seconds; specific activity to Metastin (1-54)); type: cell-based; conditions: hOT7T175/CHO, relative to Metastin (1-54) = 1
T1 construct: expressed in transfected cells

hOT7T175 [2] = target: T1, hOT7T175; type: cell-based; conditions: hOT7T175/CHO, FLIPR, evaluation for 40 seconds after initiation of the reaction
Experimental: The intracellular Ca ion level-increasing activity was measured using FLIPR as in TEST EXAMPLE 2.

[3] = Blood testosterone level decreasing effect in mature male rat (2 mM peptide solution, ALZET osmotic pump); type: in vivo; conditions: 2 mM peptide solution in distilled water, ALZET osmotic pump s.c., 6 days, Tables 28 and 29
Experimental: (§1) This peptide solution was filled in 5 ALZET osmotic pumps (Model 2001, 0.2 ml in volume, release rate: 0.001 ml/hr, DURECT Corporation). The ALZET pumps filled with the peptide solution were implanted subcutaneously in 5 CD(SD)IGS male rats of 9 weeks old after birth (Charles River Japan, Inc.) on the back under ether anesthesia by one pump for one animal. For negative control, distilled water (Otsuka Pharmaceutical Co., Ltd.) was filled in 5 ALZET osmotic pumps, which were similarly implanted in 5 male CD(SD)IGS rats (Charles River Japan, Inc.), respectively. These pump-implanted rats were fed for 6 days under normal feeding conditions. After weighing, the animal was decapitated to collect blood. After 0.03 ml/ml blood of aprotinin solution (Trasylol, Bayer) containing 0.1 mg/ml EDTA.2Na was added to blood, the mixture was centrifuged at 1,800 G for 25 minutes to isolate/recover plasma. From the plasma obtained, 0.05 ml was applied to radioimmunoassay (DPC.Total Testosterone Kit, Diagnostic Products Corporation) to measure the plasma testosterone level of each rat. The value below the limit of measurement (0.04 ng/ml of plasma level) in radioimmunoassay was treated as 0. A mean value of the testosterone levels from 5 rats receiving the peptide was calculated and a relative value (percent) of the mean value to a mean value from 5 rats receiving distilled water.

hOT7T175 [4] = target: T2, hOT7T175 (Homo sapiens, UniProt Q969F8); experiment: Intracellular Ca ion level-increasing activity using FLIPR (180 seconds; specific activity to Metastin (1-54)); type: cell-based; conditions: hOT7T175/CHO, change in intracellular calcium ion level for 180 seconds, Tables 21-23
T2 construct: expressed in transfected cells

[5] = Blood testosterone level decreasing effect in mature male rat (0.1 mM peptide solution); type: in vivo
Experimental: as §1
In a manner similar to TEST EXAMPLE 14, evaluation was made using 0.1 mM peptide solution and a part of the results obtained are shown in TABLE 30.

[6] = Action of reducing testosterone level in blood in mature male rat (1 mM peptide in 50% DMSO, ALZET osmotic pump); type: in vivo; conditions: 1 mM peptide in 50% DMSO aqueous solution, ALZET osmotic pump s.c., six days

T2 sequence (Q969F8 whole entry L364H): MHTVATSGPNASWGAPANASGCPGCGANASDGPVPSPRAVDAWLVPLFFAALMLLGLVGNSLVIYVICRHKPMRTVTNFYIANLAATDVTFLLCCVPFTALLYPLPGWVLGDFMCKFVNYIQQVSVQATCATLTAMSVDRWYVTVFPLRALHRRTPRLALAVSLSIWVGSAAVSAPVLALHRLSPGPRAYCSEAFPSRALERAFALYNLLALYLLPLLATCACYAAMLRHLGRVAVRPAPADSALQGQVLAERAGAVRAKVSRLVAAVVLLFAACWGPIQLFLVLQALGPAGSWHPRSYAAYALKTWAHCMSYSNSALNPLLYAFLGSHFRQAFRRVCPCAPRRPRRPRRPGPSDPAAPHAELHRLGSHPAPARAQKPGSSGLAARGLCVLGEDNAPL
T1 sequence (Q969F8 whole entry L364H): as above

Row | Molecule | Specific Act. (intracellular Ca ion level-increasing activity, specific activity to Metastin (1-54)) (hOT7T175 [1]) | Specific Act. (EC50/MS10 EC50) (hOT7T175 [2]) | Teststerone level in Blood [3] [%] | intracellular Ca ion level-increasing activity [specific activity to Metastin (1-54)] (hOT7T175 [4]) | Teststerone level in Blood [5] [%] | Testosterone level in Blood [6] [%]
1 | CNC(=N)NCCC[C@H](NC(=O)[C@H](CC(C)C)NC(=O)CNC(=O)[C@H](Cc1ccccc1)NC(=O)[C@H](CO)NC(=O)[C@H](CC(N)=O)NC(=O)[C@H](Cc1c[nH]c2ccccc12)NC(=O)[C@H](CC(N)=O)NC(=O)[C@H](N)Cc1ccc(O)cc1)C(=O)N[C@@H](Cc1ccccc1)C(N)=O [Compound No. 141] | 10 | 1.6 | 31 |  |  | 
2 | 3-Phenylpropionyl-Asn-Ser-Phe-AzaGly-Leu-Arg(Me)-Trp-NH2 [Compound No. 499] |  | 1.4 | 2 | 10 | 32 | 
3 | CNC(=N)NCCC[C@H](NC(=O)[C@H](CC(C)C)NC(=O)NNC(=O)[C@H](Cc1ccccc1)NC(=O)[C@H](CO)NC(=O)[C@H](CC(N)=O)NC(=O)CCc1ccccc1)C(=O)N[C@@H](Cc1ccccc1)C(N)=O [Compound No. 269, 3-Phenylpropionyl-Asn-Ser-Phe-AzaGly-Leu-Arg(Me)-Phe-NH2] (Hydrocinnamoyl-NSF[azaGly]L[Arg(Me)]F-NH2) |  | 3.4 | 7 | 3 |  | 
4 | 4-Pyridinecarbonyl-Phe-AzaGly-Leu-Arg(Me)-Trp-NH2 [Compound No. 436] |  | 1.4 | 35 | 5 |  | 
5 | Ac-[dY][dW]NVF[azaGly]L[Arg(Me)]W-NH2 [Compound No. 564] |  | 0.5 |  |  | 66 | 2
6 | D-Tyr-D-Pya(4)-Ala-Ser-Phe-AzaGly-Leu-Arg(Me)-Trp-NH2 [Compound No. 492] |  | 1.1 | 65 | 5 |  | 
7 | 3-(3-Indolyl)propionyl-Phe-AzaGly-Leu-Arg(Me)-Trp-NH2 [Compound No. 354] |  | 0.8 | 43 | 10 |  | 
8 | Bz-NSF[azaGly]L[Arg(Me)]W-NH2 [Compound No. 509] |  | 2.0 | 2 | 20 |  | 
9 | D-Tyr-D-Pya(4)-Asn-Ser-Phe-AzaGly-Leu-Arg(Me)-Trp-NH2 [Compound No. 385] |  | 0.7 | 2 | 10 | 33 | 
10 | 3-(3-Pyridyl)propionyl-Asn-Ser-Phe-AzaGly-Leu-Arg(Me)-Trp-NH2 [Compound No. 386] |  | 2.9 | 23 | 7 |  | 
11 | GuAmb-Phe-AzaGly-Leu-Arg(Me)-Trp-NH2 [Compound No. 334] |  |  | 40 |  |  | 
12 | 3-Phenylpropionyl-Asn-Thr-Phe-AzaGly-Leu-Arg(Me)-Trp-NH2 [Compound No. 505] |  | 0.7 | 40 | 20 |  | 
13 | D-Tyr-D-Pya(4)-Asn-Val-Phe-AzaGly-Leu-Arg(Me)-Trp-NH2 [Compound No. 515] |  | 1.0 | 2 | 10 |  | 
14 | D-Tyr-D-Pya(4)-Asn-Ser-Cha-Gly-Leu-Arg(Me)-Trp-NH2 [Compound No. 496] |  | 0.7 | 3 | 5 |  | 
15 | CC(C)C[C@H](NC(=O)NNC(=O)[C@H](Cc1ccccc1)NC(=O)[C@H](CO)NC(=O)[C@H](CC(N)=O)NC(=O)[C@H](Cc1c[nH]c2ccccc12)NC(=O)[C@H](CC(N)=O)NC(=O)[C@@H](N)Cc1ccc(O)cc1)C(=O)N[C@@H](CCCNC(=N)N)C(=O)N[C@@H](Cc1ccccc1)C(N)=O [Compound No. 176, Tyr-Asn-Trp-Asn-Ser-Phe-AzaGly-Leu-Arg-Phe-NH2] | 5 | 1.3 | 12 |  |  | 
16 | H-YNWNSFGLRW-NH2 [Compound No. 134] | 30 | 0.5 | 50 |  |  | 
17 | 3-Phenylpropionyl-Asn-Hyp-Phe-AzaGly-Leu-Arg(Me)-Trp-NH2 [Compound No. 517] |  | 1.0 | 79 |  |  | 
18 | Bz-NS[Phe(4-F)][azaGly]L[Arg(Me)]W-NH2 [Compound No. 545] |  | 1.1 |  |  | 37 | 2
19 | [dR][GABA][dY][dW]NTF[azaGly]L[Arg(Me)]W-NH2 [Compound No. 555] |  | 1.5 |  |  | 73 | 2
20 | 3-Phenylpropionyl-Asn-Ser-Phe(4F)-AzaGly-Leu-Arg(Me)-Trp-NH2 [Compound No. 508] |  | 1.0 | 9 | 10 |  | 
21 | [dY][dW]NTF[azaGly]L[Arg(Me)]W-NH2 [Compound No. 512] |  | 0.8 | 2 | 30 | 38 | 
